Assay results reported in article PMC5940834, “Discovery and functional characterisation of a luqin-type neuropeptide signalling system in a deuterostome” (Scientific Reports, 2018).
Entries after “also recorded” stand apart in the source; their conditions may differ. Where no end group is shown, it is not given here.

Tests used:
[1] = test system: ArLQR2; test: ArLQ/neuropeptide activation of ArLQR2, bioluminescence in CHO-ArLQR2 cells; assay type: cell-based, Asterias rubens; conditions: ArLQ 1 × 10^−4 to 1 × 10^−14 M, other neuropeptides 1 × 10^−4 to 1 × 10^−13 M
Description: (§1) To enable pharmacological characterisation of ArLQR1 and ArLQR2, cDNAs encoding these receptors were amplified by PCR, using A. rubens radial nerve cord total cDNA, specific primers (see supplementary Table 1 for a list of the primers) and Q5 polymerase (NEB; Cat. No. M0491S). First, the receptor cDNAs were ligated into the phagemid vector pBluescript II SK + (Agilent Technologies; Cat. No. 212205) using a blunt-end ligation method. The vector was cut with the restriction enzyme EcoRV (NEB; Cat. No. R0195S) and the ligation was performed using T4 DNA ligase (NEB; Cat. No. M0202S). Successful ligation was confirmed by PCR, restriction enzyme digestion and sequencing (TubeSeq service; Eurofins Genomics). The receptor cDNAs were then sub-cloned into the eukaryotic expression vector pcDNA 3.1( + ) (Invitrogen; Cat. No. V790-20). To accomplish this, forward primers included the partial Kozak consensus sequence (ACC) and a sequence corresponding to the first 21 bases of the ArLQR1 or ArLQR2 ORFs, including the start codon. Reverse primers consisted of a stop codon and a sequence reverse complementary to the ORF encoding the C-terminal region of ArLQR1 or ArLQR2 (see supplementary Table 1 for a list of the primers). PCR was performed using Q5 polymerase NEB and the cDNA products were ligated into the pcDNA 3.1(+) vector that had been cut previously with the restriction enzyme EcoRV by performing blunt-end ligation with T4 DNA ligase NEB. The direction of the insert was determined by restriction enzyme digestion and sequencing. The ArLQR1 and ArLQR2 sequences have been deposited in the GenBank database under accession numbers MG744509 and MG744510 respectively.
(§2) To determine if ArLQ acts as a ligand for ArLQR1 and/or ArLQR2, the receptors were expressed in Chinese hamster ovary cells (CHO-K1) stably expressing the calcium-sensitive bioluminescent reporter GFP-aequorin fusion protein (G5A)[43]. CHO-K1 cells were maintained at 37 °C in T25 culture flasks (USA Scientific; Cat. No. CC7682-4325) containing 6 ml of DMEM/F12 Nutrient Mixture medium (Thermo Fisher Scientific; Cat. No. 11039047) supplemented with 10% fetal bovine serum (Thermo Fisher Scientific; Cat. No. 10082147), Antibiotic-Antimycotic 1 × (Thermo Fisher Scientific, Cat. No. 15240062) and 200 μg/ml of Geneticin G418 sulfate (Thermo Fisher Scientific, Cat. No. 10131035). Upon reaching a confluency of approximately 80%, cells were transfected with the plasmids containing ArLQR1 or ArLQR2 receptor cDNAs and a plasmid containing the promiscuous Gα-16 protein that can couple a wide range of GPCRs to the phospholipase C pathway. The transfection was achieved using 5 µg of each plasmid and 8 μl of the transfection reagent Lipofectamine 3000 following the manufacturer instructions (Thermo Fisher Scientific; Cat. No. L3000008). Two days post-transfection, the culture medium was removed and the cells detached by the addition of 2 ml of 1 × PBS buffer pH 7.4 (Thermo Fisher Scientific; Cat. No. 10010023) supplemented with UltraPure EDTA 0.5 M pH 8.0 (Thermo Fisher Scientific; Cat. No. 15575020) to a final concentration of 5 mM EDTA. […] Luminescence levels were recorded over a 35-second period using a FLUOstar Omega Plate Reader (BMG LABTECH; FLUOstar Omega Series multi-mode microplate reader). […]

[2] = test system: ArLQR1; test: ArLQ/neuropeptide activation of ArLQR1, bioluminescence in CHO-ArLQR1 cells; assay type: cell-based, Asterias rubens; conditions: ArLQ 1 × 10^−4 to 1 × 10^−14 M, other neuropeptides 1 × 10^−4 to 1 × 10^−13 M
Description: as §1, §2

[3] = test system: cardiac stomach preparations; conditions: "all three of these preparations"; cited from earlier work
Description: Informed by findings from analysis of the expression of ArLQP in A. rubens (see results), synthetic ArLQ (custom synthesized by PPR Ltd, Fareham, UK) was tested on tube foot and cardiac stomach preparations from A. rubens. […] Tube foot preparations were obtained by dissecting from starfish arms a small square-shaped piece of ambulacral body wall containing a single tube foot stem and its associated ampulla. Co ...

[4] = test system: tube foot preparations; conditions: A. rubens; cited from earlier work
Description: Figure 6 ArLQ causes relaxation of in vitro preparations of tube feet from A. rubens. […] (B). […] Tube foot preparations were obtained by dissecting from starfish arms a small square-shaped piece of ambulacral body wall containing a single tube foot stem and its associated ampulla. Co ...

[5] = test system: neurons and muscles involved in feeding behaviour; conditions: Achatina fulica; cited from earlier work
Description: (§3) Neuropeptides play a central role in the control of diverse physiological processes and behaviours in animals. Furthermore, neuropeptides are evolutionarily ancient mediators of neuronal signalling and a large number of different neuropeptide signalling pathways were already present in the common ancestor of protostomes and deuterostomes[1]–[3]. The discovery of neuropeptide signalling systems has been enabled by a variety of experimental strategies. The luqin-type neuropeptide system that is the focus of this study was first discovered using a molecular biological approach where the object ...

[6] = test system: heart ventricle; conditions: Achatina fulica; cited from earlier work
Description: as §3

[7] = test system: GRL106; conditions: orphan G-protein coupled receptor; cited from earlier work
Description: as §3

[8] = test system: auricle preparations; conditions: Lymnaea stagnalis; cited from earlier work
Description: as §3

[9] = test system: receptor for the luqin-type peptide WRPGRFamide; conditions: cited from earlier work
Description: as §3

In the case of “GGGVPHVFQSGGIF-NH2 [ArTK2, tachykinin-like peptide from A. rubens]”, the “activation of ArLQR2 (in words)” value [1] is reported as “none of them caused activation of the receptors”, the “activation of ArLQR2 (in words)” value ([1]; listed as ArTKL) is reported as “do not activate the receptors” and the “activation of ArLQR1 (in words)” value [2] is reported as “none of them caused activation of the receptors”. For the same substance, the “activation of ArLQR1 (in words)” value ([2]; listed as ArTKL) was “do not activate the receptors”.
In the case of SGPYSFNSGLTF-NH2 [S2], the “activation of ArLQR2 (in words)” value [1] is reported as “do not activate the receptors”, the “activation of ArLQR2 (in words)” value ([1]; listed as SALMFamide-2) is reported as “none of them caused activation of the receptors” and the “activation of ArLQR1 (in words)” value [2] is reported as “do not activate the receptors”. For the same substance, the “activation of ArLQR1 (in words)” value ([2]; listed as SALMFamide-2) was “none of them caused activation of the receptors”, the “relaxant effect on cardiac stomach and other preparations (earlier studies)” value [3] was “relaxant of all three of these preparations” and the “relaxation of tube foot preparations (earlier studies)” value [4] was “known tube foot relaxant; also recorded: causes relaxation of tube foot preparations; also recorded: relaxant of all three of these preparations”.
For “SGQWRPQGRF-NH2 [ACEP-1, homolog of luqin (…amide) discovered in the snail Achatina fulica]”, the “effect on neurons and muscles involved in feeding behaviour” value [5] is listed as “excitatory effects on neurons and muscles involved in feeding behaviour” and the “effect on beat of the heart ventricle” value [6] is listed as “potentiating the beat of the heart ventricle”.
In the case of “TPHWRPQGRF-NH2 [LyCEP, luqin-type peptide (…amide) discovered in the pond snail Lymnaea stagnalis]”, the “receptor identified for the peptide (GRL106)” value [7] is listed as “identified as the receptor for this peptide” and the “effect on beating frequency of auricle preparations” value [8] is listed as “increases the beating frequency of auricle preparations”.
In the case of “WRPGRF-NH2 [luqin-type peptide of the annelid Platynereis dumerilii]”, the “receptor identified for the peptide (P. dumerilii)” value [9] is listed as “has been identified in the annelid Platynereis dumerilii”.
For “pQDRSKAMQAERTGQLRRLNPRF-NH2 [ArNPY, Neuropeptide Y-type peptide from A. rubens]”, the “activation of ArLQR2 (in words)” value [1] was “do not activate the receptors; also recorded: none of them caused activation of the receptors” and the “activation of ArLQR1 (in words)” value [2] was “do not activate the receptors; also recorded: none of them caused activation of the receptors”.
